Patent publication US9457030B2, “Compositions and methods for the treatment of juvenile neuronal ceroid lipofuscinosis and related disorders” (BOARD OF REGENTS OF THE UNIVERSITY OF NEBRASKA, priority 2012, dated 2016)
Entries after “also recorded” stand apart in the source; their conditions may differ.

Columns and labels:
CLN3^Δex7/8 microglia [1] = test: IL-1β and TNF-α production by primary microglia (ELISA); format: cell-based, mouse; conditions: 1 hour pre-treatment, then 20 μM ceramide+neuron lysates for 24 hours, CLN3 mutant microglia
Protocol: (§1) FIG. 21. PDE-4 inhibitors attenuate IL-1β and TNF-α production in CLN3^Δex7/8 microglia. Primary microglia were isolated from the brains of CLN3 WT or CLN3 mutant mice, whereupon cells were pre-treated with various concentrations of the phosphodiesterase-4 inhibitor propentofylline (PPF) for 1 hour followed by a combination of molecules known to be elevated in the JNCL brain (20 μM ceramide+neuron lysates) for 24 hours. Conditioned medium was collected at 24 hours post-treatment and IL-1β and TNF-α expression was determined by ELISA. **, p<0.01 for WT versus CLN3 mutant microglia; #, p<0.05; ##, p<0.01; ###, p<0.001 for CLN3 mutant microglia treated with PPF versus vehicle control.
as §1, with “22.” for “21.”, “rolipram (Rol)” for “propentofylline (PPF)”, “p<0.05;” for “p<0.05; ##, p<0.01;”, “Rol” for “PPF”
as §1, with “24.” for “21.”, “attenuate” for “attenuate IL-1β and”, “roflumilast (Rof)” for “propentofylline (PPF)”, “and” for “and IL-1β and”, “microglia.” for “microglia; #, p<0.05; ##, p<0.01; ###, p<0.001 for CLN3 mutant microglia treated with PPF versus vehicle control.”
In these experiments, primary microglia are isolated from the brains of CLN3^Δex7/8 and WT mice^8,25-27. Microglia are exposed to previously optimized concentrations of glutamate (50 μM), ATP (5 mM), ceramide (20-100 μM), neuronal lysate (1:2 or 1:5 dilution), or LPS+ATP as a positive control (100 ng/ml and 5 mM, respectively) for 24 hours, whereupon interleukin-1β (IL-1β) and tumor necrosis factor-α (TNF-α) expression are quantitated by ELISA. These cytokines were selected for analysis because they have been directly implicated in contributing to microglia-induced neuronal cell death^14,28 and also because they intersect with oxidative pathways described herein. […] In addition, CLN3 loss is examined to determine if the loss augments caspase-1 activity, a key inflammasome component that senses oxidative stress and lysosomal damage, resulting in IL-1β cleavage and secretion by microglia^8. Here, CLN3^Δex7/8 and WT microglia are exposed to the same stimuli described above, followed by incubation with the FLICA reagent (Immunochemistry Technologies LLC), a caspase-1 substrate that emits fluorescence when cleaved by the active enzyme^29. […] Indeed, studies support this expectation because caspase-1 activity was elevated in CLN3^Δex7/8 microglia compared to WT cells (FIG. 3).

CLN3^Δex7/8 microglia [2] = test: Intracellular cAMP in primary microglia; format: cell-based, mouse; conditions: rolipram 10 μM in FIG. 23, 24 hours post-treatment
Protocol: FIG. 23. CLN3^Δex7/8 microglia display reduced intracellular cAMP constitutively, which is enhanced by the PDE-4 inhibitors. Primary microglia were isolated from the brains of CLN3 WT or CLN3 mutant mice, whereupon cells were pre-treated with the phosphodiesterase-4 inhibitor rolipram (Rol; 10 μM) for 1 hour followed by a combination of molecules known to be elevated in the JNCL brain (20 μM ceramide+neuron lysates) for 24 hours. Intracellular cAMP levels were determined at 24 hours post-treatment (*, p<0.05).

astrocytes = conditions: cited from earlier work

SMILES	IL-1β production (CLN3^Δex7/8 microglia [1])	TNF-α production (CLN3^Δex7/8 microglia [1])	IL-1β production (CLN3^Δex7/8 microglia [1]; listed as PPF)	Intracellular cAMP levels (CLN3^Δex7/8 microglia [2])	glutamate transporter expression in astrocytes (astrocytes)
CCCn1cnc2c1c(=O)n(CCCCC(C)=O)c(=O)n2C [propentofylline]	attenuate	attenuate	significantly reduced IL-1β release	increased	increase glutamate transporter expression in astrocytes
O=C(Nc1c(Cl)cncc1Cl)c1ccc(OC(F)F)c(OCC2CC2)c1 [roflumilast]	inhibit	attenuate			
COc1ccc(C2CNC(=O)C2)cc1OC1CCCC1 (stereo not shown) [rolipram]	attenuate; also recorded: significantly reduced IL-1β release	attenuate		enhanced; also recorded: increased	
